Measurements reported in ChEMBL document CHEMBL1201862, “PubChem BioAssay data set” (2004).
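Five concentrations, 48 hours, 96-well plates. Here, GI50 denotes the concentration required for 50% inhibition of growth.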 Activity calls are given as the source filed them. No stated cut-off is given here; in the data, active = GI50 up to about 1.1 µM and inactive = higher.

Tests used:
Experiment in all cases: NCI-60 cell line screen, 48 h
786-0 = system: 786-0
A549 = system: A549
CCRF-CEM = system: CCRF-CEM
COLO 205 = system: COLO 205
HL-60 = system: HL-60
HOP-92 = system: HOP-92
KM12 = system: KM12
Malme-3M = system: Malme-3M
OVCAR-4 = system: OVCAR-4
OVCAR-5 = system: OVCAR-5
SF-295 = system: SF-295
SK-MEL-5 = system: SK-MEL-5
SN12C = system: SN12C
SNB-75 = system: SNB-75
SNB-78 = system: SNB-78
U-251 = system: U-251
UO-31 = system: UO-31

Measured: GI50

Cc1ccc(CC(C)N)cc1 (stereo not given)
inactive: 786-0 > 100 µM | A549 > 100 µM | CCRF-CEM > 100 µM | COLO 205 > 100 µM | HL-60 > 100 µM | HOP-92 > 100 µM | KM12 > 100 µM | Malme-3M > 100 µM | OVCAR-4 > 100 µM | OVCAR-5 > 100 µM | SF-295 > 100 µM | SK-MEL-5 > 100 µM | SN12C > 100 µM | SNB-75 > 100 µM | SNB-78 > 100 µM | U-251 > 100 µM | UO-31 > 100 µM

COc1ccccc1-n1c(C)nc2ccccc2c1=O
inactive: 786-0 > 100 µM | A549 > 100 µM | CCRF-CEM > 100 µM | COLO 205 > 100 µM | HL-60 > 100 µM | HOP-92 > 100 µM | KM12 > 100 µM | Malme-3M > 100 µM | OVCAR-4 > 100 µM | OVCAR-5 > 100 µM | SF-295 > 100 µM | SK-MEL-5 > 100 µM | SN12C > 100 µM | SNB-75 > 100 µM | SNB-78 > 100 µM | U-251 > 100 µM | UO-31 > 100 µM

Cc1cc(O)nc(NNC(C#N)c2ccco2)n1 (stereo not given)
inactive: 786-0 > 100 µM | A549 > 100 µM | CCRF-CEM > 100 µM | COLO 205 > 100 µM | HL-60 > 100 µM | HOP-92 > 100 µM | KM12 > 100 µM | Malme-3M > 100 µM | OVCAR-4 > 100 µM | OVCAR-5 > 100 µM | SF-295 > 100 µM | SK-MEL-5 > 100 µM | SN12C > 100 µM | SNB-75 37.2 µM | SNB-78 > 100 µM | U-251 > 100 µM | UO-31 > 100 µM

C/C(=N\NC(N)=S)c1ccc(C)c(C)c1
inactive: 786-0 44.6 µM | A549 65.8 µM | CCRF-CEM 28.1 µM | COLO 205 26.9 µM | HL-60 15.1 µM | HOP-92 93.3 µM | KM12 44.5 µM | Malme-3M 33.3 µM | OVCAR-4 23.9 µM | OVCAR-5 29.1 µM | SF-295 48.8 µM | SK-MEL-5 69.2 µM | SN12C 49.9 µM | SNB-75 40.3 µM | SNB-78 > 100 µM | U-251 88.9 µM | UO-31 52.1 µM

CC(C)(c1ccc(Oc2ccc(C#N)c(C#N)c2)cc1)c1ccc(Oc2ccc(C#N)c(C#N)c2)cc1
inactive: 786-0 > 10 µM | A549 > 10 µM | CCRF-CEM > 10 µM | COLO 205 > 10 µM | HL-60 > 10 µM | HOP-92 > 10 µM | KM12 > 10 µM | Malme-3M > 10 µM | OVCAR-4 > 10 µM | OVCAR-5 > 10 µM | SF-295 > 10 µM | SK-MEL-5 > 10 µM | SN12C > 10 µM | SNB-75 1.78 µM | SNB-78 > 10 µM | U-251 > 10 µM | UO-31 3.58 µM
